Key:
JCPyV [1] = assay: ER trafficking assay, colocalization with PDI; assay type: cell-based, JC polyomavirus
BKPyV [2] = assay: ER trafficking assay, colocalization with PDI; assay type: cell-based, BK polyomavirus
CTxB [3] = assay type: cell-based
SV40 [4] = assay: ER trafficking assay, colocalization with PDI; assay type: cell-based, simian virus 40
JCPyV [5] = assay: Dose dependent inhibition of infection, flow cytometric scoring, SVG-A cells; assay type: cell-based, JC polyomavirus; details: for inhibition of JCPyV infection (FIG. 8C): 100 μM, SVG-A cells pre-incubated, flow cytometry
JCPyV [6] = assay: Endocytosis assay, trypan blue quenching, confocal microscopy; assay type: cell-based, JC polyomavirus; details: 100 μM Retro-2, 30 μM chloropromazine; fixed at 2 h
BKPyV [7] = assay: as above; assay type: cell-based, BK polyomavirus; details: 100 μM Retro-2, 100 μM nystatin; fixed at 2 h
SV40 [8] = assay: Binding of labeled virus to Vero cells, flow cytometry; assay type: cell-based, simian virus 40; details: 100 μM, 1 h pretreatment
SVG-A or Vero cells = assay type: cell-based
Description: The viability of SVG-A or Vero cells were first tested after treatment with Retro-2^cycl. Cells were treated with Retro-2^cycl at the indicated concentrations for 72 h before viability was assessed using the CellTiter 96 AQueous One Solution Cell Proliferation Assay. As a control, cells were treated with either 0.04% DMSO or with 10% SDS. Error bars denote standard deviation.

BKPyV [9] = assay: Time course (time of addition) experiment, Vero cells; assay type: cell-based, BK polyomavirus
SV40 [10] = assay: Multicycle growth assay and reinfection assay in established infection, Vero cells; assay type: cell-based, simian virus 40
JCPyV [11] = assay: VP2 release assay; assay type: cell-based, JC polyomavirus; details: 100 μM Retro-2, 500 ng/mL brefeldin A; MOI 10, 10 hpi
Ad5-GFP pseudovirus = assay type: cell-based, Adenovirus Type 5; details: Vero cells pre-treated, GFP positive cells by flow cytometry
SV40 [12] = assay: Dose dependent inhibition of infection, flow cytometric scoring, Vero cells; assay type: cell-based, simian virus 40; details: Betapolyomavirus macacae, VP1 at 72 h, compared to vehicle control, read-out: calculated EC50, decrease in percentage of cells expressing VP1
BKPyV [13] = assay: as above; assay type: cell-based, BK polyomavirus; details: Betapolyomavirus hominis, VP1 at 72 h, compared to vehicle control, read-out: calculated EC50, decrease in percentage of cells expressing VP1
CTxB [14] = assay type: cell-based; remark: listed apart in the source
SV40 [15] = assay: Time course (time of addition) experiment, Vero cells; assay type: cell-based, simian virus 40
SV40 [16] = assay: VP2 release assay; assay type: cell-based, simian virus 40; details: 100 μM Retro-2, 500 ng/mL brefeldin A; MOI 10, 10 hpi
JCPyV [17] = assay: Multicycle growth assay and reinfection assay in established infection, SVG-A cells; assay type: cell-based, JC polyomavirus
BKPyV [18] = assay: VP2 release assay; assay type: cell-based, BK polyomavirus; details: 100 μM Retro-2, 500 ng/mL brefeldin A; MOI 10, 10 hpi
Stx2 = details: cited from earlier work
BKPyV [19] = assay: Multicycle growth assay and reinfection assay in established infection, Vero cells; assay type: cell-based, BK polyomavirus
JCPyV [20] = assay: Time course (time of addition) experiment, SVG-A cells; assay type: cell-based, JC polyomavirus
SV40 [21] = assay: Endocytosis assay, trypan blue quenching, confocal microscopy; assay type: cell-based, simian virus 40; details: 100 μM Retro-2, 100 μM nystatin; fixed at 2 h
BKPyV [22] = assay: Binding of labeled virus to Vero cells, flow cytometry; assay type: cell-based, BK polyomavirus; details: 100 μM, 1 h pretreatment
[23] = Conversion (cyclization) of Retro-2 in solution; assay type: physicochemical
cells = details: cited from earlier work
[24] = 100 μM, re-fed daily, 12 days post infection, MOI 0.01

Cc1ccc(/C=N/c2cccc(C(=O)Nc3ccccc3)c2)s1 [Retro-2^meta]
colocalization with the ER protein PDI (JCPyV [1]): significant colocalization
colocalization with the ER protein PDI (BKPyV [2]): significant colocalization
colocalization with the ER protein PDI (CTxB [3]): significant colocalization
colocalization with the ER protein PDI (SV40 [4]): significant colocalization
inhibition of JCPyV infection (FIG. 8C) (JCPyV [5]): significantly less active

CCc1ccc(C2Nc3ccccc3C(=O)N2c2ccccc2)s1 (stereo not drawn) [BU62382A4]
potency against polyomavirus infectivity relative to Retro-2^cycl (JCPyV [5]; preliminary SAR, ethyl instead of methyl at position 5 of thiophenyl ring): does not negatively impact potency

Cc1ccc(C2Nc3ccccc3C(=O)N2c2ccccc2)s1 (stereo not drawn) [Retro-2^cycl, 2-(5-methylthiophen-2-yl)-3-phenyl-2,3-dihydroquinazolin-4(1H)-one]
co-localization of JCV-633 with Rab5 endosomes (JCPyV [1]): increases co-localization
colocalization with the ER protein PDI (JCPyV [1]): significantly reduces colocalization
inhibition of endocytosis (JCPyV [6]): does not inhibit endocytosis
inhibition of endocytosis (BKPyV [7]): does not inhibit endocytosis
binding to cells compared to vehicle control (SV40 [8]): slight decreases
cell viability at effective doses (SVG-A or Vero cells): do not negatively affect cell viability
infectivity regained when compound is added late (BKPyV [9]): greater than 80%
time of addition after which most of the inhibitory effect is lost (BKPyV [9]): > 12 h
time of addition at which infectivity is still significantly reduced (BKPyV [9]): up to 4 hours post infection (hpi)
inhibition of viral spread (percentage of infected cells vs vehicle control) (SV40 [10]; [24]): 84%
infectious virions in tissue culture supernatant (reinfection of naive cells) (SV40 [10]; cultures treated with 100 μM): significantly less infectious virions
cells exposing VP2 (JCPyV [11]): significant reduction of cells exposing VP2
inhibition of Ad5-GFP transduction (Ad5-GFP pseudovirus): did not inhibit transduction
EC50 (SV40 [12]): 58.6 µM
EC50 (BKPyV [13]): 61.2 µM
inhibition of endocytosis (CTxB [14]): does not inhibit endocytosis
infectivity regained when compound is added late (SV40 [15]): greater than 80%
time of addition after which most of the inhibitory effect is lost (SV40 [15]): > 12 h
time of addition at which infectivity is still significantly reduced (SV40 [15]): up to 4 hours post infection (hpi)
colocalization with the ER protein PDI (BKPyV [2]): significantly reduces colocalization
cells exposing VP2 (SV40 [16]): significant reduction of cells exposing VP2
inhibition of viral spread (percentage of infected cells vs vehicle control) (JCPyV [17]; [24]): 90.5%
infectious virions in tissue culture supernatant (reinfection of naive cells) (JCPyV [17]; cultures treated with 100 μM): significantly less infectious virions
cytopathic effect in JCV infected SVG-A cells (JCPyV [17]; phase contrast microscopy at 15 days post infection, vs DMSO): reduces cytopathic effect
colocalization with the ER protein PDI (CTxB [3]): significantly reduces colocalization
colocalization with the ER protein PDI (SV40 [4]): reduced, although this reduction was not significant
cells exposing VP2 (BKPyV [18]): significant reduction of cells exposing VP2
protection of cells from toxin (Stx2): able to protect cells
inhibition of viral spread (percentage of infected cells vs vehicle control) (BKPyV [19]; [24]): 89%
infectious virions in tissue culture supernatant (reinfection of naive cells) (BKPyV [19]; cultures treated with 100 μM): significantly less infectious virions
infectivity regained when compound is added late (JCPyV [20]): greater than 80%
time of addition after which most of the inhibitory effect is lost (JCPyV [20]): > 14 h
time of addition at which infectivity is still significantly reduced (JCPyV [20]): up to 4 hours post infection (hpi)
inhibition of endocytosis (SV40 [21]): does not inhibit endocytosis
binding to cells compared to vehicle control (BKPyV [22]): slight decreases
EC50 (JCPyV [5]; JC polyomavirus, SVG-A cells, VP1 at 72 h, compared to vehicle control, read-out: calculated EC50, decrease in percentage of cells expressing VP1): 28.4 µM

Cc1ccc(CNc2ccccc2C(=O)Nc2ccccc2)s1 [Retro-2^red]
inhibition of JCPyV infection (FIG. 8C) (JCPyV [5]): significantly less active

Cc1ccc(/C=N/c2ccccc2C(=O)Nc2ccccc2)s1 [Retro-2, 2-(((5-methylthiophen-2-yl)methylene)amino)-N-phenylbenzamide]
conversion to Retro-2^cycl in solution [23]: rapidly converts

CN(C)CCCN1c2ccccc2Sc2ccc(Cl)cc21 [chloropromazine, reference compound]
inhibition of endocytosis (JCPyV [6]): inhibits endocytosis

C[C@H]1CCC/C=C/[C@@H]2C[C@H](O)C[C@H]2[C@H](O)/C=C/C(=O)O1 [brefeldin A, reference compound]
colocalization with the ER protein PDI (JCPyV [1]): significantly reduces colocalization
cytotoxicity to cells (cells): highly cytotoxic
cells exposing VP2 (JCPyV [11]): significant reduction in the number of cells with VP2 exposed
colocalization with the ER protein PDI (BKPyV [2]): significantly reduces colocalization
cells exposing VP2 (SV40 [16]): significant reduction in the number of cells with VP2 exposed
colocalization with the ER protein PDI (CTxB [3]): significantly reduces colocalization
colocalization with the ER protein PDI (SV40 [4]): reduced, although this reduction was not significant
cells exposing VP2 (BKPyV [18]): significant reduction in the number of cells with VP2 exposed
reduction in infectivity (JCPyV [5]; 20 ng/mL, SVG-A cells, positive control): 96%

C[C@@H]1[C@H](O)[C@@H](C)/C=C/C=C/CC/C=C/C=C/C=C/C=C/C(O[C@H]2O[C@H](C)[C@@H](O)[C@H](N)[C@@H]2O)CC2O[C@](O)(CC(O)C(O)CCC(O)CC(O)CC(O)CC(=O)O[C@H]1C)CC(O)C2C(=O)O (stereo partly drawn) [nystatin, reference compound]
inhibition of endocytosis (BKPyV [7]): inhibits endocytosis
inhibition of endocytosis (CTxB [14]): inhibits endocytosis
inhibition of endocytosis (SV40 [21]): inhibits endocytosis

Source: patent US9695156B2, “Compounds for the treatment and prevention of infections” (Brown University, priority 2012, dated 2017)
